# Assay results published in US20090022803A1, “Oral Formulations For Delivery of Catecholic Butanes Including Ndga Compounds” (priority 2005, published 2009).
# Tests used:
# [1] = Human Phase 0 three-way crossover microdose pharmacokinetic study of 14C-labelled M4N, AMS; type: in vivo; conditions: for F: bioavailability of oral dose compared to IV dose; for Tmax: intravenous dose
# Procedure: This study was designed to assess the absorption of M4N when administered to humans as a sub-therapeutic dose either as a single oral dose under fed and fasted conditions or a single intravenous dose (Regimens A-C, respectively, in Table 24). The study was a three-way crossover study design in a target population of healthy male subjects and consisted of three study periods of approximately 35 hours duration, each separated by a minimum period of at least 7 days between dosing. During the course of each study period, pharmacokinetic blood samples were taken at specified time points after dosing and urine was collected over pre-defined time intervals. The subjects were able to leave the clinical unit after the completion of study specific procedures at 24 hours post-dose.
# In this study, M4N was administered to humans in a 100 μg quantity. M4N was lightly-labelled with ^14C (3.3 kBq per 100 μg) and administered to healthy volunteers. Each oral administration of M4N consisted of 0.1 mg of ^14C labeled M4N and 376.8 mg of glycerol monooleate in a size 0 gelatin capsule. The single intravenous infusion of M4N consisted of 0.1 mg/mL ^14C labelled M4N, 30% (w/v) HP-β-CD, and 25% (v/v) PEG diluted with water to 1 mL for bolus injection. Following collection of blood and urine from each subject, samples were analyzed for ^14C content using Accelerator Mass Spectrometry (AMS) to determine the maximum concentration of M4N (Cmax) that occurred at time Tmax, the overall area under the curve (AUC) that corresponds to the overall absorption of M4N at the times of testing (AUC0-t) and overall (AUC0-∞), the terminal half-life (T1/2) of each sample and the relative and overall bioavailability (Frel and F), of the oral dose of M4N compared to the IV dose of M4N. The baseline levels of M4N were corrected for any residual M4N remaining in the subjects following the periods between dosing so as not to inflate the levels of M4N for any subsequent dosing.
# [2] = M4N stability in HP-β-CD/PEG 300 buffer solutions at 60° C., RP-HPLC and pH; type: physicochemical; conditions: for M4N stability: M4N: 25% PEG300
# Procedure: The stability of 10 mg/mL M4N (prepared in a ratio of 75:25 40% HP-β-CD: 40 mg/mL M4N PEG 300) in 15 mM buffer solutions was evaluated following incubation at 60° C.
# 2.0 g HP-β-CD was weighed into 5 mL volumetric flasks on an OHAUS Analytical Plus Balance. 1 mL of a 100 mM buffer solution was added to each flask. Each sample was q.s. to 5 mL with WFI.
# 750 μL 40% HP-β-CD buffered solution was placed in 1.5 mL polypropylene microtubes. […] After gentle inversion of the sample tubes, the pH of each solution was measured using a Orion, Model 420A pH meter. An initial aliquot was removed for RP-HPLC analysis. Test samples were then placed in a Precision 60° C. incubator. The M4N stability was evaluated by RP-HPLC. At each time point, the samples were centrifuged for 2 minutes at 13,000 rpm to pellet any solid M4N.
# [3] = human, 100 μg, total 14C plasma
# [4] = human, oral and intravenous 100 μg
compound,measurement,setting,value
"COc1ccc(C[C@@H](C)[C@@H](C)Cc2ccc(OC)c(OC)c2)cc1OC [Formulation M4N, meso-1,4-bis(3,4-dimethoxyphenyl)-2,3-dimethylbutane]",F,"[1]; Regimen A (oral, fed): 100 μg single oral dose following a high fat breakfast, 14C, baseline corrected, mean ± SD",91.2 ± 19.1%
same,F,"[1]; Regimen B (oral, fasted): 100 μg single oral dose following an overnight fast, 14C, baseline corrected, mean ± SD",122.1 ± 14.5%
same,AUC0-t oral dose in fasted subjects compared with the intravenous dose,[1]; [3],slightly higher
same,AUC0-t oral dose in fed subjects compared with the intravenous dose,[1]; [3],slightly lower
same,apparent absorption following oral administration,"[1]; human, fed and fasted state",very high
same,Tmax,"[1]; human, eight of the ten subjects (first sampling time)",4.8 min
same,Tmax,"[1]; human, two subjects",10.2 min
same,AUC0-t in fed subjects compared with fasted subjects,"[1]; human, oral 100 μg",generally lower
same,"Tmax, generally","[1]; human, oral 100 μg, fasted subjects",60 min
same,adverse events,[1]; [4],no serious or severe adverse events
same,tolerability,[1]; [4],well tolerated
same,vital signs or ECGs,[1]; [4],No clinically significant changes
same,Frel,"[1]; relative bioavailability, Regimen A (oral, fed): 100 μg single oral dose following a high fat breakfast, 14C, baseline corrected, mean ± SD",75.1 ± 16.2%
same,change in M4N concentration,"[2]; 10 mg/mL M4N in HP-β-CD/PEG 300 buffer solutions, 14 day incubation at 60° C.",slight decrease
same,M4N stability: M4N,"[2]; 15 mM Acetate, pH 5 30% HP-β-CD, 60° C., 0 days",10.6 mg/mL
same,M4N stability: M4N,"[2]; 15 mM Acetate, pH 5 30% HP-β-CD, 60° C., 2 days",10.2 mg/mL
same,M4N stability: M4N,"[2]; 15 mM Acetate, pH 5 30% HP-β-CD, 60° C., 6 days",9.6 mg/mL
same,M4N stability: M4N,"[2]; 15 mM Acetate, pH 5 30% HP-β-CD, 60° C., 10 days",9.7 mg/mL
same,M4N stability: M4N,"[2]; 15 mM Acetate, pH 5 30% HP-β-CD, 60° C., 14 days",9.6 mg/mL
same,M4N stability: M4N,"[2]; 15 mM Acetate, pH 6 30% HP-β-CD, 60° C., 0 days",10.5 mg/mL
same,M4N stability: M4N,"[2]; 15 mM Acetate, pH 6 30% HP-β-CD, 60° C., 2 days",10.1 mg/mL
same,M4N stability: M4N,"[2]; 15 mM Acetate, pH 6 30% HP-β-CD, 60° C., 6 days",9.7 mg/mL
same,M4N stability: M4N,"[2]; 15 mM Acetate, pH 6 30% HP-β-CD, 60° C., 10 days",9.7 mg/mL
same,M4N stability: M4N,"[2]; 15 mM Acetate, pH 6 30% HP-β-CD, 60° C., 14 days",9.6 mg/mL
same,M4N stability: M4N,"[2]; 15 mM Borate, pH 10 30% HP-β-CD, 60° C., 0 days",10.5 mg/mL
same,M4N stability: M4N,"[2]; 15 mM Borate, pH 10 30% HP-β-CD, 60° C., 2 days",10.1 mg/mL
same,M4N stability: M4N,"[2]; 15 mM Borate, pH 10 30% HP-β-CD, 60° C., 6 days",9.7 mg/mL
same,M4N stability: M4N,"[2]; 15 mM Borate, pH 10 30% HP-β-CD, 60° C., 10 days",9.6 mg/mL
same,M4N stability: M4N,"[2]; 15 mM Borate, pH 10 30% HP-β-CD, 60° C., 14 days",9.6 mg/mL
same,M4N stability: M4N,"[2]; 15 mM Borate, pH 11 30% HP-β-CD, 60° C., 0 days",10.5 mg/mL
same,M4N stability: M4N,"[2]; 15 mM Borate, pH 11 30% HP-β-CD, 60° C., 2 days",10.3 mg/mL
same,M4N stability: M4N,"[2]; 15 mM Borate, pH 11 30% HP-β-CD, 60° C., 6 days",9.8 mg/mL
same,M4N stability: M4N,"[2]; 15 mM Borate, pH 11 30% HP-β-CD, 60° C., 10 days",9.5 mg/mL
same,M4N stability: M4N,"[2]; 15 mM Borate, pH 11 30% HP-β-CD, 60° C., 14 days",9.4 mg/mL
same,M4N stability: M4N,"[2]; 15 mM Phosphate, pH 3 30% HP-β-CD, 60° C., 0 days",10.3 mg/mL
same,M4N stability: M4N,"[2]; 15 mM Phosphate, pH 3 30% HP-β-CD, 60° C., 2 days",10.1 mg/mL
same,M4N stability: M4N,"[2]; 15 mM Phosphate, pH 3 30% HP-β-CD, 60° C., 6 days",9.6 mg/mL
same,M4N stability: M4N,"[2]; 15 mM Phosphate, pH 3 30% HP-β-CD, 60° C., 10 days",9.7 mg/mL
same,M4N stability: M4N,"[2]; 15 mM Phosphate, pH 3 30% HP-β-CD, 60° C., 14 days",9.6 mg/mL
same,M4N stability: M4N,"[2]; 15 mM Phosphate, pH 4 30% HP-β-CD, 60° C., 0 days",10.5 mg/mL
same,M4N stability: M4N,"[2]; 15 mM Phosphate, pH 4 30% HP-β-CD, 60° C., 2 days",10.1 mg/mL
same,M4N stability: M4N,"[2]; 15 mM Phosphate, pH 4 30% HP-β-CD, 60° C., 6 days",9.6 mg/mL
same,M4N stability: M4N,"[2]; 15 mM Phosphate, pH 4 30% HP-β-CD, 60° C., 10 days",9.7 mg/mL
same,M4N stability: M4N,"[2]; 15 mM Phosphate, pH 4 30% HP-β-CD, 60° C., 14 days",9.6 mg/mL
same,M4N stability: M4N,"[2]; 15 mM Phosphate, pH 7 30% HP-β-CD, 60° C., 0 days",10.5 mg/mL
same,M4N stability: M4N,"[2]; 15 mM Phosphate, pH 7 30% HP-β-CD, 60° C., 2 days",10.3 mg/mL
same,M4N stability: M4N,"[2]; 15 mM Phosphate, pH 7 30% HP-β-CD, 60° C., 6 days",9.7 mg/mL
same,M4N stability: M4N,"[2]; 15 mM Phosphate, pH 7 30% HP-β-CD, 60° C., 10 days",9.7 mg/mL
same,M4N stability: M4N,"[2]; 15 mM Phosphate, pH 7 30% HP-β-CD, 60° C., 14 days",9.7 mg/mL
same,M4N stability: M4N,"[2]; 15 mM Phosphate, pH 8 30% HP-β-CD, 60° C., 0 days",10.6 mg/mL
same,M4N stability: M4N,"[2]; 15 mM Phosphate, pH 8 30% HP-β-CD, 60° C., 2 days",10.4 mg/mL
same,M4N stability: M4N,"[2]; 15 mM Phosphate, pH 8 30% HP-β-CD, 60° C., 6 days",9.7 mg/mL
same,M4N stability: M4N,"[2]; 15 mM Phosphate, pH 8 30% HP-β-CD, 60° C., 10 days",9.8 mg/mL
same,M4N stability: M4N,"[2]; 15 mM Phosphate, pH 8 30% HP-β-CD, 60° C., 14 days",9.6 mg/mL
same,M4N stability: M4N,"[2]; 15 mM Phosphate, pH 9 30% HP-β-CD, 60° C., 0 days",10.4 mg/mL
same,M4N stability: M4N,"[2]; 15 mM Phosphate, pH 9 30% HP-β-CD, 60° C., 2 days",10.2 mg/mL
same,M4N stability: M4N,"[2]; 15 mM Phosphate, pH 9 30% HP-β-CD, 60° C., 6 days",9.7 mg/mL
same,M4N stability: M4N,"[2]; 15 mM Phosphate, pH 9 30% HP-β-CD, 60° C., 10 days",9.8 mg/mL
same,M4N stability: M4N,"[2]; 15 mM Phosphate, pH 9 30% HP-β-CD, 60° C., 14 days",9.7 mg/mL
same,"M4N impurities, share of the total peak area","[2]; HP-β-CD/PEG 300 buffer solutions, 60° C.",less than 0.1%
same,M4N stability: M4N,"[2]; WFI, 30% HP-β-CD, 60° C., 0 days",10.4 mg/mL
same,M4N stability: M4N,"[2]; WFI, 30% HP-β-CD, 60° C., 6 days",9.9 mg/mL
same,M4N stability: M4N,"[2]; WFI, 30% HP-β-CD, 60° C., 10 days",9.7 mg/mL
same,M4N stability: M4N,"[2]; WFI, 30% HP-β-CD, 60° C., 14 days",9.6 mg/mL
same,change in apparent sample pH,[2]; incubation at 60° C. up to 14 days,Little if any changes
